The record followed here is patent US9102674B2, “Substituted naphthyridine and quinoline compounds as MAO inhibitors” (DART NEUROSCIENCE (CAYMAN) LTD., priority 2013, dated 2015).

For the assay, the target named is T1, Human recombinant MAO-B (Homo sapiens, UniProt P27338).
T1 construct: host or cells: insect cells
T1 sequence (P27338 1-520): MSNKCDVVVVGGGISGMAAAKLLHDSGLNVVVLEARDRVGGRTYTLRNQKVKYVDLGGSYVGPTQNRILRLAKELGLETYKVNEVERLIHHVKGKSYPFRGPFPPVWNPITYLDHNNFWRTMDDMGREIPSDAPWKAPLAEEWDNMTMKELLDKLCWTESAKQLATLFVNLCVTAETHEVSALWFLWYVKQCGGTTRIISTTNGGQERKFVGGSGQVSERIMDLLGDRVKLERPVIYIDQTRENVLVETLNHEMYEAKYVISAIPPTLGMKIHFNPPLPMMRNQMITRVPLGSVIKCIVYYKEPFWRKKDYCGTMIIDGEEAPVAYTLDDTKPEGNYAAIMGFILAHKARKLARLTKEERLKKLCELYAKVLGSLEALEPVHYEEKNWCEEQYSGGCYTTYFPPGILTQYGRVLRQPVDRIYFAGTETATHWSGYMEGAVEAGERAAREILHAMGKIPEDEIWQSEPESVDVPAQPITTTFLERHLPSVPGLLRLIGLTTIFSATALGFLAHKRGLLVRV
Kind of assay: MAO-B enzymatic assay (fluorometric, kynuramine). It counts as biochemical. The following applies: human recombinant MAO-B expressed in insect cells; kynuramine substrate; values given as bins; read-out: MAO-B (pEC50) (converted). As for the experimental part: The MAO enzymatic assay was performed according to the fluorometric method described by Matsumoto and colleagues (Matsumoto et al., Clin. Biochem. 1985, 18, 126-129) with the following modifications. Human recombinant MAO-A and MAO-B expressed in insect cells were used. For both assays, test compound and/or vehicle were preincubated with purified enzyme in phosphate buffer pH 7.4 for 15 minutes at 37° C. The reaction was initiated by addition of […] kynuramine. Following a 60 minute incubation period, the reaction was terminated by the addition of 6 N NaOH. The amount of 4-hydroxyquinoline that formed was determined by spectrofluorimetrically at 325 nm/465 nm.
Results were converted to percent inhibition, and the EC50 (M) for each reaction was determined using the XLfit program from IDBS (ID Business Solutions Ltd., 2 Occam Court, Surrey Research Park, Guildford, Surrey, GU2 7QB UK). The EC50 represents the concentration of a compound where 50% of its maximal effect is observed. The pEC50 is defined as the negative logarithm of the EC50; a higher pEC50 value therefore corresponds to higher potency in the assay.
Representative compounds of the invention were evaluated in the MAO-B enzymatic assay. Typically, the compounds of the invention show MAO-B inhibitory properties at a concentration of 0.1 to 10 μM, typically at 5-100%.
As depicted in the following Table, these inhibitory properties were mirrored by pEC50 values ranging from 5 (meaning 10^−5 M or 10 μM) to greater than 7 (meaning less than 10^−7 M or 0.1 μM).

As for `CCOC(=O)c1cc2ccc(OCc3ccc(F)c(Cl)c3)cc2nc1C` [Example 23, Ethyl 7-((3-chloro-4-fluorobenzyl)oxy)-2-methylquinoline-3-carboxylate], the EC50 is < 100 nM.
The same measure for `Cc1nc2cc(OCc3ccc(F)cc3)ccc2cc1C(C)(C)O` [Example 31, 2-(7-((4-Fluorobenzyl)oxy)-2-methylquinolin-3-yl)propan-2-ol]: < 100 nM; for `CC(C)(O)c1cnc2cc(OCc3ccc(F)c(F)c3)cnc2c1` [Example 77, 2-{7-[(3,4-Difluorophenyl)methoxy]-1,5-naphthyridin-3-yl}propan-2-ol]: < 100 nM.
The value for `CCOC(=O)c1cc2ccc(OCc3cccc(F)c3)cc2nc1C` [Example 21, Ethyl 7-((3-fluorobenzyl)oxy)-2-methylquinoline-3-carboxylate] was < 100 nM.
As to `NC(=O)Cc1cnc2cc(OCc3cccc(C(F)(F)F)n3)cnc2c1` [Example 81, 2-(7-((6-(Trifluoromethyl)pyridin-2-yl)methoxy)-1,5-naphthyridin-3-yl)acetamide], the EC50 is 100 to 1000 nM.
The value for `CCOC(=O)Cc1cnc2cc(OCc3ccc(F)cc3)ccc2c1` [Example 53, Ethyl 2-(7-((4-fluorobenzyl)oxy)quinolin-3-yl)acetate] was 100 to 1000 nM; that for `CCOC(=O)c1cnc2cc(OCCc3cccc(Cl)c3)ccc2c1` [Example 25, Ethyl 7-(3-chlorophenethoxy)quinoline-3-carboxylate] was 100 to 1000 nM.
The value for `CNC(=O)c1cnc2cc(OCc3cccc(Cl)c3)cnc2c1` [Example 72, 7-[(3-Chlorophenyl)methoxy]-N-methyl-1,5-naphthyridine-3-carboxamide] was < 100 nM; that for `NC(=O)Cc1cnc2cc(OCc3cccc(Cl)c3)ccc2c1` [Example 55, 2-(7-((3-Chlorobenzyl)oxy)quinolin-3-yl)acetamide] was < 100 nM; that for `NC(=O)c1cnc2cc(OCc3cccc(Cl)c3)cnc2c1` [Example 69, 7-((3-Chlorobenzyl)oxy)-1,5-naphthyridine-3-carboxamide] was < 100 nM.
Consider `CNCCNC(=O)c1cnc2cc(OCc3cccc(Cl)c3)ccc2c1` [Example 48, 7-((3-Chlorobenzyl)oxy)-N-(2-(methylamino)ethyl)quinoline-3-carboxamide], for which the EC50 is 100 to 1000 nM.
The value for `CC(C)(O)c1cnc2cc(OCc3cc(F)cc(F)c3)ccc2c1` [Example 29, 2-(7-((3,5-Difluorobenzyl)oxy)quinolin-3-yl)propan-2-ol] was < 100 nM.
As for `COC(=O)Cc1cnc2cc(OCc3cccc(Cl)c3)ccc2c1` [Example 54, Methyl 2-(7-((3-chlorobenzyl)oxy)quinolin-3-yl)acetate], the EC50 is < 100 nM.
Turning to `CN(C)CCNC(=O)c1cnc2cc(OCc3cccc(Cl)c3)ccc2c1` [Example 49, 7-((3-Chlorobenzyl)oxy)-N-(2-(dimethylamino)ethyl)quinoline-3-carboxamide], the EC50 is 1000 to 10000 nM.
On to `CCOC(=O)c1cnc2cc(OCc3cccc(Cl)c3)ccc2c1` [Example 3, Ethyl 7-[(3-chlorophenyl)methoxy]quinoline-3-carboxylate], for which the EC50 was < 100 nM.
The value for `CC(C)(O)c1cnc2cc(OCCc3cccc(F)c3)ccc2c1` [Example 38, 2-(7-(3-Fluorophenethoxy)quinolin-3-yl)propan-2-ol] was 100 to 1000 nM; that for `CCOC(=O)c1cc2ccc(OCc3cccc(Cl)c3)cc2nc1C` [Example 20, Ethyl 7-((3-chlorobenzyl)oxy)-2-methylquinoline-3-carboxylate] was < 100 nM.
In the case of `NC(=O)Cc1cnc2cc(OCc3ccc(F)cc3)ccc2c1` [Example 58, 2-(7-((4-fluorobenzyl)oxy)quinolin-3-yl)acetamide], the EC50 was < 100 nM.
The same measure for `COC(=O)c1cnc2cc(OCc3cccc(Cl)c3)ccc2c1` [Example 26, Methyl 7-((3-chlorobenzyl)oxy)quinoline-3-carboxylate]: < 100 nM; for `NC(=O)Cc1cnc2cc(OCc3cccc(F)c3)ccc2c1` [Example 57, 2-(7-((3-Fluorobenzyl)oxy)quinolin-3-yl)acetamide]: < 100 nM.
The value for `CCOC(=O)c1cnc2cc(OCc3ccc(OC)cc3)ccc2c1` [Example 10, Ethyl 7-((4-methoxybenzyl)oxy)quinoline-3-carboxylate] was 100 to 1000 nM.
The same measure for `CC(C)(O)c1cnc2cc(OCc3cc(F)c(F)c(F)c3)ccc2c1` [Example 30, 2-(7-((3,4,5-Trifluorobenzyl)oxy)quinolin-3-yl)propan-2-ol]: < 100 nM.
As to `OCc1cnc2cc(OCc3cc(F)cc(F)c3)ccc2c1` [Example 36, (7-((3,5-Difluorobenzyl)oxy)quinolin-3-yl)methanol], the EC50 was < 100 nM.
The same measure for `CC(C)(O)c1cnc2cc(OCc3ccc(F)c(Cl)c3)cnc2c1` [Example 78, 2-{7-[(3-Chloro-4-fluorophenyl)methoxy]-1,5-naphthyridin-3-yl}propan-2-ol]: < 100 nM.
Regarding `NC(=O)Cc1cnc2cc(OCc3ccnc(C(F)(F)F)c3)ccc2c1` [Example 62, 2-(7-((2-(Trifluoromethyl)pyridin-4-yl)methoxy)quinolin-3-yl)acetamide], the EC50 was < 100 nM.
Take `CCOC(=O)c1cnc2cc(OCc3cc(F)c(F)c(F)c3)ccc2c1` [Example 16, Ethyl 7-((3,4,5-trifluorobenzyl)oxy)quinoline-3-carboxylate]: the EC50 is < 100 nM.
Regarding `CCOC(=O)c1cnc2cc(OCc3ccc(F)cc3)ccc2c1` [Example 2, Ethyl 7-[(4-fluorophenyl)methoxy]quinoline-3-carboxylate], the EC50 is < 100 nM.
On to `CC(C)(C(N)=O)c1cnc2cc(OCc3cccc(Cl)c3)ccc2c1` [Example 61, 2-(7-((3-Chlorobenzyl)oxy)quinolin-3-yl)-2-methylpropanamide], for which the EC50 is < 100 nM.
The same measure for `OCc1cnc2cc(OCc3ccc(F)c(F)c3)cnc2c1` [Example 73, (7-((3,4-Difluorobenzyl)oxy)-1,5-naphthyridin-3-yl)methanol]: < 100 nM.
In the case of `NC(=O)c1cnc2cc(OCc3cccc(F)c3)cnc2c1` [Example 67, 7-[(3-Fluorophenyl)methoxy]-1,5-naphthyridine-3-carboxamide], the EC50 is < 100 nM.
Turning to `CCOC(=O)c1cnc2cc(OCCc3cccc(F)c3)ccc2c1` [Example 24, Ethyl 7-(3-fluorophenethoxy)quinoline-3-carboxylate], the EC50 is < 100 nM.
The value for `CCOC(=O)Cc1cnc2cc(OCc3cccc(F)c3)ccc2c1` [Example 52, Ethyl 2-(7-((3-fluorobenzyl)oxy)quinolin-3-yl)acetate] was 1000 to 10000 nM; that for `CC(C)(O)c1cnc2cc(OCc3ccc(F)cc3)cnc2c1` [Example 65, 2-{7-[(4-Fluorophenyl)methoxy]-1,5-naphthyridin-3-yl}propan-2-ol] was < 100 nM; that for `CC(C)(O)c1cnc2cc(OCc3cccc(Cl)c3)cnc2c1` [Example 79, 2-{7-[(3-Chlorophenyl)methoxy]-1,5-naphthyridin-3-yl}propan-2-ol] was < 100 nM.
Consider `CC(C)(O)c1cc2ccc(OCc3ccc(F)cc3)cc2[n+]([O-])c1` [Example 66, 7-[(4-Fluorophenyl)methoxy]-3-(2-hydroxypropan-2-yl)quinolin-1-ium-1-olate], for which the EC50 was 100 to 1000 nM.
